Results from patent publication US9102648B1, “Bioavailable diacylhydrazine ligands for modulating the expression of exogenous genes via an ecdysone receptor complex” (Intrexon Corporation, priority 2003, dated 2015).
In brackets after ≈: the same amount, converted by molar mass. Like-named read-outs stand apart in the source and are kept apart here.

Assays:
[1] = Partition coefficient Log (D), 1-octanol / pH 7.4 buffer; assay type: physicochemical; conditions: water-saturated 1-octanol / pH 7.4 buffer, room temperature
In short: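 Octanol/pH 7.4 buffer partition at room temperature, compound added from 10 mM DMSO stock with 100 μM testosterone internal control; vortexed 60 min, centrifuged. Both layers diluted and quantified by LC/MS; Log D taken as log of the peak-area ratio.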

[2] = Bi-directional permeability, CACO-2; assay type: in vitro ADME
In short: (§1)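 Caco-2 monolayers on Transwell membranes dosed at 10 μM, apical or basolateral side, in HBSS with 10 mM HEPES, 15 mM glucose, pH 7.0±0.2; 37° C. Receiver sampled at 1 and 2 hours, quantified by LC/MS; duplicate determinations, monolayer integrity checked by Lucifer yellow flux.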

Caco-2 monolayers = experiment: Bi-directional permeability, CACO-2; assay type: in vitro ADME
In short: as §1

[3] = system: mutated ecdysone receptor-based gene switch; experiment: In vivo SEAP induction, ligand by IP injection; design: species or system C57BL/6 mouse; conditions: for Secreted Alkaline Phosphatase (percentage of GS ™-E ligand induction) Day 2 / Secreted Alkaline Phosphatase (percentage of GS ™-E ligand induction) Day 3 / Secreted Alkaline Phosphatase (percentage of GS ™-E ligand induction) Day 11: mouse serum; for Secreted Alkaline Phosphatase (percentage of GS ™-E ligand induction) Day 2: IP 2.6 μmol ligand 3 days after electroporation, day 2 after ligand; for Secreted Alkaline Phosphatase (percentage of GS ™-E ligand induction) Day 3 / Secreted Alkaline Phosphatase (percentage of GS ™-E ligand induction) Day 11: IP 2.6 μmol ligand; for Secreted Alkaline Phosphatase (percentage of GS ™-E ligand induction) Day 3: day 3 after ligand; for Secreted Alkaline Phosphatase (percentage of GS ™-E ligand induction) Day 11: day 11 after ligand
In short: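 Gene switch plasmids (receptor under CMV promoter) electroporated into quadriceps of C57BL/6 mice; 3 days later ligand given IP at 2.6 μmol or 26 nmol in 50 μL DMSO per mouse. Serum SEAP measured by chemiluminescence 2-11 days after dosing, averaged over four animals, expressed as % of GS™-E ligand induction.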

[4] = Aqueous equilibrium solubility in pH 7.4 buffer; conditions: pH 7.4 aqueous phosphate buffer, pH 7.4, aqueous buffer, thermodynamic from solid
Experimental: Equilibrium solubility was measured in pH 7.4 aqueous buffer. The buffer was prepared by adjusting the pH of a 0.07 M solution of NaH2PO4 to pH 7.4 with 10 N NaOH. […] At least 1 mg of powder was combined with 1 mL of buffer to make >1 mg/mL mixture. These samples were shaken for ≧2 hours and left to stand overnight at room temperature. The samples were then filtered through a 0.45-μm Nylon syringe filter that was first saturated with the sample. The filtrate was sampled twice, consecutively. The filtrate was assayed by HPLC against standards prepared in methanol.

[5] = Determination of water solubility (de-ionized water, LC/MS); conditions: kinetic from dmso stock
Experimental: Aqueous solutions are prepared as follows in triplicate: 50 μl of a 10,000 ppm solution (2,000 μg of solid dissolved in 200 μl of methanol) of the substrate in methanol or DMSO is added to 1 mL of de-ionized water in a 2 dram or smaller vial with magnetic stirring. Stirring is continued overnight at ambient temperature. The slurry is taken up into a syringe with a luer tip. The contents are passed through a new 13 mm 0.2 ρM Acrodisc filter (tuffryn or glass fiber) into an autosampler bottle. For preparation of calibration standard solutions: dilutions of the 10,000 ppm solution were prepared at 10, 5, 1, 0.5, and 0.2 ppm. […] For more soluble materials, dilution of the samples into this range is preferable to increasing the calibration range because the non-linearity of the response results in less useful calibration curves. However a shift in the range of calibration standards is required for very insoluble compounds.
Chromatography of the samples was then preformed. For most diacylhydrazines the following conditions were adequate for the measurement. Other columns and gradients may be substituted as appropriate.
Analysis of the test samples is conducted as follows: Each solubility replicate is analyzed in duplicate. […] Standard curves are obtained from duplicate injections of the standards. The concentration of the substrate is determined by calculation from the equation relating concentration and response.

[6] = Caco-2, pH 7, Percent Recovery Blank
[7] = human, Caco-2, pH 7, Papp, A-to-B Avg
[8] = human, Caco-2, pH 7, Papp, A-to-B Rep. 1
[9] = human, Caco-2, pH 7, Papp, A-to-B Rep. 2
[10] = human, Caco-2, pH 7, Papp, B-to-A Avg
[11] = human, Caco-2, pH 7, Papp, B-to-A Rep. 1
[12] = human, Caco-2, pH 7, Papp, B-to-A Rep. 2
[13] = human, Caco-2, pH 7, Percent Recovery A-to-B
[14] = human, Caco-2, pH 7, Percent Recovery B-to-A

Compound	Log(D) Octanol/pH 7.4 [1]	Papp at 2 h, 10 µM ([2]; Caco-2, pH 7, Papp Blank) [×10⁻⁶ cm/s]	recovery at 2 h, 10 μM [2, 6] [%]	efflux ratio at 2 h, 10 μM ([2]; human, Caco-2, pH 7)	Papp A→B at 2 h, 10 µM [2, 7] [×10⁻⁶ cm/s]	Papp A→B at 2 h, 10 µM [2, 8] [×10⁻⁶ cm/s]	Papp A→B at 2 h, 10 µM [2, 9] [×10⁻⁶ cm/s]	Papp B→A at 2 h, 10 µM [2, 10] [×10⁻⁶ cm/s]	Papp B→A at 2 h, 10 µM [2, 11] [×10⁻⁶ cm/s]	Papp B→A at 2 h, 10 µM [2, 12] [×10⁻⁶ cm/s]	recovery at 2 h, 10 μM [2, 13] [%]	recovery at 2 h, 10 μM [2, 14] [%]	Significant Efflux (Caco-2 monolayers; Caco-2)	Secreted Alkaline Phosphatase (percentage of GS ™-E ligand induction) Day 2 [3]	Secreted Alkaline Phosphatase (percentage of GS ™-E ligand induction) Day 3 [3]	Secreted Alkaline Phosphatase (percentage of GS ™-E ligand induction) Day 11 [3]	solubility [4] [µg/mL]	solubility kinetic [5] [µM]	other results
CCc1ccc(C(=O)NN(C(=O)c2cc(C)cc(C)c2)C(C)(C)C)c(F)c1 [RG-101523, 3,5-Dimethyl-benzoic acid N-tert-butyl-N′-(4-ethyl-2-fluoro-benzoyl)-hydrazide]	2.9	29.4	95	1	25.4	24.2	26.6	24.5	23.6	25.4	95	88	No	85 percentage of GS ™-E ligand induction	79 percentage of GS ™-E ligand induction	1,116 percentage of GS ™-E ligand induction	1 (≈ 2.7 µM)	13.4 (≈ 4.96 µg/mL)	
CCc1c(OC)cccc1C(=O)NN(C(=O)c1cc(C)cc(C)c1)C(C)(C)C [RG-102240, N-(3-methoxy-2-ethylbenzoyl)-N′-(3,5-dimethylbenzoyl)-N′-tert-butylhydrazine]	3.4													100 percentage of GS ™-E ligand induction	100 percentage of GS ™-E ligand induction	100 percentage of GS ™-E ligand induction	0.7 (≈ 1.83 µM)	9.8 (≈ 3.75 µg/mL)	Papp at 2 h, 10 µM ([2]; Caco-2, pH 7, cell-free (blank) membrane, 10 μM, read-out: Papp Blank): 28.4 ×10⁻⁶ cm/s; recovery at 2 h, 10 μM ([2]; Caco-2, pH 7, cell-free (blank) membrane, 10 μM, read-out: Percent Recovery Blank): 78%; Papp A→B at 2 h, 10 µM ([2]; human, Caco-2, pH 7, Caco-2, 10 μM, average of 2 replicates, read-out: Papp, A-to-B Avg): 31.8 ×10⁻⁶ cm/s; Papp B→A at 2 h, 10 µM ([2]; human, Caco-2, pH 7, Caco-2, 10 μM, average of 2 replicates, read-out: Papp, B-to-A Avg): 23.5 ×10⁻⁶ cm/s; Papp A→B at 2 h, 10 µM ([2]; human, Caco-2, pH 7, Caco-2, 10 μM, replicate 1, read-out: Papp, A-to-B Rep. 1): 32.3 ×10⁻⁶ cm/s; Papp B→A at 2 h, 10 µM ([2]; human, Caco-2, pH 7, Caco-2, 10 μM, replicate 1, read-out: Papp, B-to-A Rep. 1): 23.3 ×10⁻⁶ cm/s; Papp A→B at 2 h, 10 µM ([2]; human, Caco-2, pH 7, Caco-2, 10 μM, replicate 2, read-out: Papp, A-to-B Rep. 2): 31.4 ×10⁻⁶ cm/s; Papp B→A at 2 h, 10 µM ([2]; human, Caco-2, pH 7, Caco-2, 10 μM, replicate 2, read-out: Papp, B-to-A Rep. 2): 23.7 ×10⁻⁶ cm/s; recovery at 2 h, 10 μM ([2]; human, Caco-2, pH 7, Caco-2, apical-to-basolateral, 10 μM, read-out: Percent Recovery A-to-B): 94%; recovery at 2 h, 10 μM ([2]; human, Caco-2, pH 7, Caco-2, basolateral-to-apical, 10 μM, read-out: Percent Recovery B-to-A): 87%; efflux ratio at 2 h, 10 μM ([2]; human, pH 7, Caco-2 efflux ratio, read-out: Papp B-A / Papp A-B Ratio): 0.7; Absorption Potential (Caco-2 monolayers; classification from Papp(A-to-B)): High (Papp(A-to-B) ≧ 1.0 × 10^−6 cm/s High); Significant Efflux (Caco-2 monolayers; classification from Papp(B-to-A) and ratio): No; Secreted Alkaline Phosphatase Day 2 ([3]; IP 130 nmol ligand): 652 ng/ml mouse sera; Secreted Alkaline Phosphatase Day 3 ([3]; IP 130 nmol ligand): 1,780 ng/ml mouse sera; Secreted Alkaline Phosphatase Day 7 ([3]; IP 130 nmol ligand): 139 ng/ml mouse sera
COc1ccc(C(=O)N(NC(=O)c2ccc3c(c2C)OCCO3)C(C)(C)C)c(OC)n1 [RG-115517, 2,6-dimethoxy-nicotinic acid N-tert-butyl-N′-(5-methyl-2,3-dihydro-benzo[1,4]dioxine-6-carbonyl)-hydrazide]	2.9	31.6	96	0.9	28.8	28.4	29.3	26.4	25.2	27.6	91	95	No	4 percentage of GS ™-E ligand induction	3 percentage of GS ™-E ligand induction		14 (≈ 32.6 µM)	36.7 (≈ 15.8 µg/mL)	
Cc1c(C(=O)NN(C(=O)c2cc(F)c(F)c(F)c2)C(C)(C)C)ccc2c1CCCO2 [RG-115575, 3,4,5-Trifluoro-benzoic acid N-tert-butyl-N′-(5-methyl-chroman-6-carbonyl)-hydrazide]														74 percentage of GS ™-E ligand induction	78 percentage of GS ™-E ligand induction	69 percentage of GS ™-E ligand induction		21.6 (≈ 9.08 µg/mL)	
COc1cc(C(=O)N(NC(=O)c2ccc3c(c2C)OCCO3)C(C)(C)C)cc(OC)c1C [RG-115637, 5-Methyl-2,3-dihydro-benzo[1,4]dioxine-6-carboxylic acid N′-tert-butyl-N′-(3,5-dimethoxy-4-methyl-benzoyl)-hydrazide]														12 percentage of GS ™-E ligand induction	7 percentage of GS ™-E ligand induction	0 percentage of GS ™-E ligand induction		13.7 (≈ 6.06 µg/mL)	
CCC(N(NC(=O)c1cccc(C)c1C)C(=O)c1cc(C)cc(C)c1)C(C)(C)C (stereo not shown) [RG-103309, 3,5-dimethyl-benzoic acid N′-(2,3-dimethyl-benzoyl)-N-(1-ethyl-2,2-dimethyl-propyl)-hydrazide]	3.0	23.6	70	1.3	24.5	25.2	23.8	32.5	32.5	32.5	74	75	No	251 percentage of GS ™-E ligand induction	298 percentage of GS ™-E ligand induction		≤ 0.2	2.9 (≈ 1.14 µg/mL)	Secreted Alkaline Phosphatase Day 2 ([3]; IP 26 nmol ligand): 3,428 ng/ml mouse sera; Secreted Alkaline Phosphatase Day 3 ([3]; IP 26 nmol ligand): 2,800 ng/ml mouse sera; Secreted Alkaline Phosphatase Day 7 ([3]; IP 26 nmol ligand): 143 ng/ml mouse sera
